# Laboratory results taken from ChEMBL document CHEMBL1129679 (J Med Chem, 1996).
# What was measured:
# Dihydrofolate reductase [1] = molecular target: T1, Dihydrofolate reductase (Homo sapiens, UniProt P00374); assay: Inhibitory activity against Dihydrofolate reductase (DHFR) isolated from CCRF-CEM human leukemia cells in experiment 1; assay type: cell-free
# T1 sequence (P00374 whole entry): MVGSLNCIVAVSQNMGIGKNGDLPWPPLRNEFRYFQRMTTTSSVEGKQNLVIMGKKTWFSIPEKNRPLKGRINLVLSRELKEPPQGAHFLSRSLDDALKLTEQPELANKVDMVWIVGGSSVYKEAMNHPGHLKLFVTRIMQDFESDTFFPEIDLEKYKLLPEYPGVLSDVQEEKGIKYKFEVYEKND
# Dihydrofolate reductase [2] = molecular target: T1, Dihydrofolate reductase; assay: Inhibitory activity against Dihydrofolate reductase (DHFR) isolated from CCRF-CEM human leukemia cells in experiment 2; assay type: cell-free
SMILES,IC50 (Dihydrofolate reductase [1]) [nM],IC50 (Dihydrofolate reductase [2]) [nM]
CN(Cc1cnc2nc(N)nc(N)c2n1)c1ccc(C(=O)NC(CC(F)C(=O)O)C(=O)O)cc1 (racemic),1.35,–
CN(Cc1cnc2nc(N)nc(N)c2n1)c1ccc(C(=O)NC(C(=O)O)C(F)(F)CC(=O)O)cc1 (racemic),–,1.34
CN(Cc1cnc2nc(N)nc(N)c2n1)c1ccc(C(=O)N[C@H](C[C@@H](F)C(=O)O)C(=O)O)cc1,0.84,–
